Test results as given in US6620828B2, “Thiazole compounds and pharmaceutical compositions for inhibiting protein kinases and methods for their use” (Agouron Pharmaceuticals, Inc., priority 1999, dated 2003).
pIC50, pKi: −log10 of the molar value. “And” between values parts separate entries of the source, which are not always exact repeats. Equal values may be shown once. Read-outs that look alike come from different tables or passages of the source.

Key:
[1] = biological target: T1, phosphorylated VEGF-R2Δ50 (Homo sapiens, UniProt P35968, DEL940-989/E990V); test: VEGF-R2 ELISA assay; format: biochemical; conditions: Table 2; * determined with ELISA assay; read-out: FLVK-P Ki
T1 construct: VEGF-R2Δ50 contains residues 806-939 and 990-1171; made in house; host or cells: baculovirus/insect cells
Summary of the method: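 Pre-autophosphorylated human VEGF-R2Δ50 (residues 806-939/990-1171, E990V; baculovirus) at 0.8 nM was run with 2 μM biotin-gastrin(1-17), 20 μM ATP, 26 mM MgCl2, 2 mM MnCl2, pH 7.5 Hepes. Phosphopeptide was captured on streptavidin and detected by anti-pTyr-HRP/ABTS at 405 nm; Ki came from activity at varying compound concentrations.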

[2] = biological target: CDK2/Cyclin A complex (Homo sapiens, UniProt P24941); test: CDK2/Cyclin A assay; format: biochemical; conditions: Table 2
Summary of the method: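 Radiometric assay: 150 nM CDK2/cyclin A (insect-cell CDK2, truncated cyclin A) phosphorylates His-tagged Rb fragment (residues 386-928) with 25 μM ATP plus [32P]ATP, pH 7.4 HEPES, 2% DMSO, 30 °C for 20 min. Filter-captured product counted by phosphorimager; apparent Ki from competitive or tight-binding inhibition fits.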

[3] = biological target: T2, CDK4/Cyclin D3 complex (Homo sapiens, UniProt P11802); test: CDK4/Cyclin D assay; format: biochemical; conditions: Table 2
T2 construct: made in house; host or cells: insect cells co-infected with baculovirus vectors
Summary of the method: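 Insect-cell-expressed CDK4/cyclin D3 (50 nM) phosphorylating His-tagged Rb fragment (residues 386-928) with 25 μM [^32P]ATP in HEPES pH 7.4, MgCl2, 2% DMSO; 20 min at 30 °C, EDTA stop. Filter-captured 32P by phosphorimager; apparent Ki from competitive or tight-binding inhibition fits.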

[4] = biological target: T3, FAKcd409 (Homo sapiens, UniProt Q05397, P410T); test: FAK HTS assay; format: biochemical; conditions: 10 uM compound, HTS Delphia assay
T3 construct: comprises residues methionine 409 to glutamate 689; made in house; host or cells: baculovirus vector expression system

[5] = biological target: T4, CHK1 (Homo sapiens, UniProt O14757); test: CHK1 high-throughput screening; format: biochemical; conditions: for % inhibition @ 20 μM: Table 4, repeated entries per example; for inhibition at 20 µM: read-out: % inhibition @ 20 μM, Table 4, repeated entries per example
T4 sequence (O14757 1-476): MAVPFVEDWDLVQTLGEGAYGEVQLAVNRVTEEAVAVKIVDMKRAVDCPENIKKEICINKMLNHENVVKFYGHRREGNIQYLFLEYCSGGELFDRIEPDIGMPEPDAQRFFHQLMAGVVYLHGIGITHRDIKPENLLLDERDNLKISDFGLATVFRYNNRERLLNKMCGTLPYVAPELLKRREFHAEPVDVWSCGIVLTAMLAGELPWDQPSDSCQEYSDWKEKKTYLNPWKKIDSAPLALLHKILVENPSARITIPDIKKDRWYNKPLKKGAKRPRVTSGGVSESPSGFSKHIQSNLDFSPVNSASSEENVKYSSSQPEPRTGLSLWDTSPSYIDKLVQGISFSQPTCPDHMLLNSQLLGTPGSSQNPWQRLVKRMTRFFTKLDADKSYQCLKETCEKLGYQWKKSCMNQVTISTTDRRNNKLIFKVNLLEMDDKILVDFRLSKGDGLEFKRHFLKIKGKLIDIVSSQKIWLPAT

[6] = biological target: T5, phosphorylated VEGF-R2Δ50 (FLVK-P) (Homo sapiens, UniProt P35968, DEL940-989/E990V); test: VEGF-R2 coupled spectrophotometric (FLVK-P) assay; format: biochemical; conditions: spectrophotometric assay
T5 construct: VEGF-R2Δ50 contains residues 806-939 and 990-1171; made in house; host or cells: baculovirus/insect cells
Summary of the method: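 Baculovirus-expressed human VEGF-R2Δ50 (residues 806-939/990-1171, E990V) was autophosphorylated with 3 mM ATP, 40 mM MgCl2 for 2 h at 4° C. ADP formation was coupled via PK/LDH to NADH oxidation, read at 340 nm, with 5.1 mM poly(E4Y1), 1 mM ATP, 25 mM MgCl2, Hepes pH 7.5. Ki came from activity across compound concentrations.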

[7] = biological target: T6, FGF-R1 (Homo sapiens, UniProt P11362, C488A/C584S/L457V); test: FGF-R spectrophotometric assay; format: biochemical; conditions: for FGF-R % inhibition @ 5: at 5 (head μM); for inhibition at 1 µM: Table 3, % inh @ 1 uM, read-out: FGF-P Ki (nM) (% inh @ 1 uM)
T6 construct: starting from the endogenous methionine residue 456 to glutamate 766; made in house; host or cells: baculovirus vector expression system
Summary of the method: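 Kinase domain (Met456–Glu766, baculovirus-expressed) used at 50 nM in a spectrophotometric assay run as for VEGF-R2. Substrates were 2 mM ATP and 15 mM poly(E4Y1).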

[8] = biological target: T7, FL-CHK1 (Homo sapiens, UniProt O14757); test: CHK1 assay; format: biochemical; conditions: Table 2; read-out: CHK-1 Ki
T7 construct: C-terminally His-tagged full-length human CHK1 (FL-CHK1); 6xHis (C); made in house; host or cells: baculovirus/insect cells
T7 sequence (O14757 1-476): T4 sequence (O14757 1-476)
Summary of the method: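 Full-length human CHK1 with C-terminal 6×His tag, made in baculovirus/insect cells, 10 nM, phosphorylating 0.125 mM Syntide-2 with 0.15 mM ATP in 50 mM Tris pH 7.5, 25 mM MgCl2, 400 mM NaCl. PK/LDH-coupled NADH oxidation read at 340 nm. Ki from initial rates over varied compound concentrations.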

[9] = test system: human umbilical vein endothelial cells (HUVEC); test: HUVEC proliferation assay; format: cell-based; conditions: Homo sapiens, HUVEC
Summary of the method: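 Exponentially growing HUVEC were serum-starved 24 h (F12K + 1% FBS), pre-treated 1 h with compound (0.1% DMSO final), then stimulated with 6 ng/ml VEGF. Proliferation was read 72 h later by MTT reduction (A595). IC50 came from seven 0.5-log concentrations in triplicate; screens gave % inhibition relative to VEGF-only and starved wells.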

[10] = test system: lung cancer cells (line MV522); test: Cancer cell proliferation (MV522) assay; format: cell-based
[11] = biological target: T8, unphosphorylated VEGF-R2Δ50 (FLVK) (Homo sapiens, UniProt P35968, DEL940-989/E990V); test: VEGF-R2 coupled spectrophotometric assay, unphosphorylated enzyme (FLVK); format: biochemical
T8 construct: VEGF-R2Δ50 contains residues 806-939 and 990-1171; made in house; host or cells: baculovirus/insect cells
Summary of the method: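 Unphosphorylated VEGF-R2Δ50 (5 to 40 nM) with 20 mM poly(E4Y1), 3 mM ATP, 60 mM MgCl2, 2 mM MnCl2 in 200 mM Hepes pH 7.5. ADP production coupled via PK/LDH to NADH oxidation, read at 340 nm. Ki from activity at varying compound concentrations.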

[12] = biological target: T9, LCK tyrosine kinase (Homo sapiens, UniProt P06239, C224D/P223M); test: LCK spectrophotometric assay; format: biochemical; conditions: for pKi: Table 3, first value of cells with two values
T9 construct: starting from amino acid residue 223 to the end of the protein at residue 509; made in house; host or cells: insect cells
Procedure: LCK Construct for Assay: The LCK tyrosine kinase was expressed in insect cells as an N-terminal deletion starting from amino acid residue 223 to the end of the protein at residue 509, with the following two amino acid substitutions at the N-terminus: […] and C224D.
The spectrophotometric assay was carried out as described above for VEGF-R2, except for the following changes in concentration: LCK=60 nM, MgCl2=0 mM, poly(E4Y1)=20 mM.

[13] = biological target: T9, LCK tyrosine kinase; test: LCK spectrophotometric assay; format: biochemical; conditions: Table 3, read-out: LCK (% inh @ 1 uM)

T9 sequence (P06239 223-509 P223M/C224D): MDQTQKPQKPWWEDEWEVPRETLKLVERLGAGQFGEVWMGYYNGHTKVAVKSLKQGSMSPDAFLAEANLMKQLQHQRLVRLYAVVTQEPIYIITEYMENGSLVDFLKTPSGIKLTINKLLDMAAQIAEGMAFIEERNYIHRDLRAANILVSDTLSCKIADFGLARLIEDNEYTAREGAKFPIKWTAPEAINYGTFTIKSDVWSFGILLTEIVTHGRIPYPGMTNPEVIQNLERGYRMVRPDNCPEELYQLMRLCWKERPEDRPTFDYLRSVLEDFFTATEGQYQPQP
T2 sequence (P11802 whole entry): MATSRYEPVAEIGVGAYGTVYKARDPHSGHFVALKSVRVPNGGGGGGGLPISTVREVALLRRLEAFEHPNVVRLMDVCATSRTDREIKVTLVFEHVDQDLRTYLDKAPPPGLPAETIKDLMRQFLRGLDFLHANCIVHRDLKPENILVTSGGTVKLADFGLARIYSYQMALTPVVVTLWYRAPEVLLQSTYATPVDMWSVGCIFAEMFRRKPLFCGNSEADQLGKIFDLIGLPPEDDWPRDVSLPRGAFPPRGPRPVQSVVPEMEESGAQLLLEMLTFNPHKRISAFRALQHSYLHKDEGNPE
T2 sequence (P30281 whole entry partner): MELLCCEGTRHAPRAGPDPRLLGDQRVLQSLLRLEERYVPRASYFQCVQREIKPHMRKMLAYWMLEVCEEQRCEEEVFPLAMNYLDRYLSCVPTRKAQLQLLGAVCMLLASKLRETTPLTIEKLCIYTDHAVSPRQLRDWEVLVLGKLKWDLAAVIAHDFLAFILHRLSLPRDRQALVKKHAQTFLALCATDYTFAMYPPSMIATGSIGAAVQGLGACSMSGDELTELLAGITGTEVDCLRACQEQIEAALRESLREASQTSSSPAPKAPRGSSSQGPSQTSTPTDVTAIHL
T5 sequence (P35968 with tags, fused parts or gaps DEL940-989/E990V limits assumed): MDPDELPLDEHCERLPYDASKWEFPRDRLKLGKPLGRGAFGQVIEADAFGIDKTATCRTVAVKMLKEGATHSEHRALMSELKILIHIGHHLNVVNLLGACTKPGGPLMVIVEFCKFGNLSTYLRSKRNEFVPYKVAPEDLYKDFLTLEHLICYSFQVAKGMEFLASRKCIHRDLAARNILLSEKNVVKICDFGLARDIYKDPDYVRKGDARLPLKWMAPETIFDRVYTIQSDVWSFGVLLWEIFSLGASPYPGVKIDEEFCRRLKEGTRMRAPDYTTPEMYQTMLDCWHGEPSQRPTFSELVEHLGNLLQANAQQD
T1 sequence (P35968 with tags, fused parts or gaps DEL940-989/E990V limits assumed): as above
T6 sequence (P11362 456-766 L457V/C488A/C584S): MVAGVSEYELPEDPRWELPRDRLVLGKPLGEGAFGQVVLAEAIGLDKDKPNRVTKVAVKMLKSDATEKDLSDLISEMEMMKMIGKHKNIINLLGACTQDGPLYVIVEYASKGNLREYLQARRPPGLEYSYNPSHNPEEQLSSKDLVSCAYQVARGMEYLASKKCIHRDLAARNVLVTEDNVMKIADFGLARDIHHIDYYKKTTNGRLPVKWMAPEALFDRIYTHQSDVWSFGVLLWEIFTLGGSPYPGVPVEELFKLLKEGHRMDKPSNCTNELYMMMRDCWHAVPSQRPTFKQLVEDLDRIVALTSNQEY
T3 sequence (Q05397 409-689 P410T): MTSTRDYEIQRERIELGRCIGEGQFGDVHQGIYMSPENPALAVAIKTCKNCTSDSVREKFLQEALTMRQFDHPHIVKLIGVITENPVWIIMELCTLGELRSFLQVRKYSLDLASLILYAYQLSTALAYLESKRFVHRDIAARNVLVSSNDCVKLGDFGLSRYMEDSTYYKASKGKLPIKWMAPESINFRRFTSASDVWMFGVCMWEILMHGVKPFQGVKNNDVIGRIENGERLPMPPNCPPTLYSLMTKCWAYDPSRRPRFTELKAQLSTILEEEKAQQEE
T8 sequence (P35968 with tags, fused parts or gaps DEL940-989/E990V limits assumed): as the sequence (P35968 with tags, fused parts or gaps DEL940-989/E990V limits assumed) above

Structure (SMILES)	pKi [1]	pKi [2]	pKi [3]	% inhibition of FAK [4] [%]	melting point	pKi ([6]; Table 2)	FGF-R % inhibition @ 5 ([7]; Table 2) [% @]	% inhibition of FAK ([4]; 10 µM)	inhibition at 20 µM [5] [%]	other results
COc1ccccc1-c1csc(-c2sc(Nc3ccc(S(N)(=O)=O)cc3)nc2N)n1 [A(3), 4-[4′-Amino-4-(2-methoxy-phenyl)-[2,5′]bithiazolyl-2′-ylamino]-benzenesulfonamide]	4.19	5.60	5.08	−9	231 to 235 °C (dec.)					% inhibition @ 20 μM [5]: 2.8% and −1.9%
COc1cc(Nc2nc(N)c(-c3nc(-c4ccc(O)cc4)cs3)s2)cc(OC)c1OC [A(10), 4-[4′-Amino-2′-(3,4,5-trimethoxy-phenylamino)-[2,5′]bithiazolyl-4-yl]-phenol]		4.87	5.04		129 to 133 °C (dec.)	7.55	45	−2% and −5% and −4%		
COc1cc(Nc2nc(N)c(-c3nc(-c4ccc(O)c(O)c4)cs3)s2)cc(OC)c1OC [A(12), 4-[4′-Amino-2′-(3,4,5-trimethoxy-phenylamino)-[2,5′]bithiazolyl-4-yl]-benzene-1,2-diol]		5.17	5.57	−16	132 to 137 °C (dec.)	7.47				pKi ([7]; Table 2): 3.72
Cc1nc(-c2sc(Nc3ccc(S(N)(=O)=O)cc3)nc2N)sc1Cc1ccc(F)cc1 [A(15), 4-[4′-Amino-5-(4-fluoro-benzyl)-4-methyl-[2,5′]bithiazolyl-2′-ylamino]-benzenesulfonamide]	4.60	5.57	5.11		130 to 135 °C (dec.)			−9% and −7% and 0%		% inhibition @ 20 μM [5]: −4.1% and −1.2%
COc1cc(Nc2nc(N)c(-c3nc(-c4cc(O)cc(O)c4)cs3)s2)cc(OC)c1OC [A(18), 5-[4′-Amino-2′-(3,4,5-trimethoxy-phenylamino)-[2,5′]bithiazolyl-4-yl]-benzene-1,3-diol]					198 to 202 °C		38	32% and 29%	60.8	inhibition at 10 µM [4]: 25%
COc1cc(Nc2nc(N)c(-c3nc(-c4cc(O)ccc4O)cs3)s2)cc(OC)c1OC [A(25), 2-(4′-Amino-2′-(3,4,5-trimethoxy-phenylamino)-[2,5′]bithiazolyl-4-yl]-benzene-1,4-diol]	7.00				208 to 212 °C (dec.)			60% and 47% and 57% and 90% and 88%	19.7	pKi [8]: 6.54
COc1cc(Nc2nc(N)c(-c3nc(-c4cc(O)ccc4Br)cs3)s2)cc(OC)c1OC [A(26), 3-[4′-Amino-2′-(3,4,5-trimethoxy-phenylamino)-[2,5′]bithiazolyl-4-yl]-4-bromophenol]				72	214 to 216 °C	7.85	52		42.5	pIC50 ([9]; Table 2): < 6.00; pIC50 ([10]; MV522, Table 2): 5.12
COc1cc(Nc2nc(N)c(-c3nc(-c4cc(NC(=O)c5cccc(Cl)c5)ccc4Cl)no3)s2)cc(OC)c1OC [D(64)]										pKi ([11]; Table 3, some entries 'Slow binder'): 8.85; inhibition at 1 µM [7]: 84%; pKi [12]: 8.49; pIC50 ([9]; Table 3): 7.00 to 8.00; pIC50 ([10]; MV522, Table 3): 5.70; inhibition at 1 µM [13]: 94%
COc1cc(Nc2nc(N)c(-c3nc(-c4cc(NC(=O)c5cccc(Cl)c5)ccc4C)no3)s2)cc(OC)c1OC [D(75), 3-[3-[(3-chlorobenzoyl)amino]-6-methyl-phenyl]-5-[2-[(3,4,5-trimethoxyphenyl)amino]-4-amino-5-thiazolyl]-1,2,4-oxadiazole]										inhibition at 1 µM [7]: 64%; pKi [12]: 8.96; pIC50 ([9]; Table 3): 8.11; inhibition at 1 µM [13]: 97%
CC(=O)Nc1nc(N)c(-c2nc(-c3cccc(NC(=O)c4ccccc4)c3)cs2)s1 [F(9), N-[3-(2′-Acetylamino-4′-amino-[2,5′]bithiazolyl-4-yl)-phenyl]benzamide]										pKi ([6]; Table 1): 8.11; pKi ([11]; Table 1): 8.02; inhibition at 1 µM ([12]; Table 1, 1 μM): 12%; pIC50 ([9]; Table 1): 7.68; pIC50 ([10]; MV522, Table 1): < 5.00
